Test results as given in patent publication US20140193531A1, “Aqueous extracts of deschampsia antarctica” (Uxmal S.A, priority 2012, published 2014).

Assays:
HaCaT cells = format: cell-based, human
Experimental: For this assay, 100,000 cells were seeded in a 24-well plate at a total volume of 500 ul in a complete culture medium. After incubating for 24 hours at 37° C. in an atmosphere of 5% CO2, the cells were irradiated with different concentrations of UV light in an irradiation system inside a type 2 biosafety laminar flow hood. The system consisted of 2 florescent tubes, one UVA-emitting 36 W PL-L (320-400 nm) and one UVB-emitting 20 W TL (290-320 nm) (Philips, Eindhoven, the Netherlands). Both tubes were located 5 cm from the bottom of the well to produce homogeneous irradiation intensity. The irradiation intensity was monitored with radiometers for UVB (Solarmeter 6.2 digital UVB radiometer, Solartech Inc., Harrison Township, Mich.) and UVA (Tecpel, CHY-732, Taiwan). The HaCaT cells were irradiated at different time intervals (Table 5) to reach the different accumulative doses of UVA and UVB (Gao et al. 2007). After irradiation with UVA+UVB light, the cells were incubated for 24 hours and the viability of the cells was measured with the MTS assay.
In this assay, 100,000 cells were seeded in a 24-well plate. After incubating for 24 hours at 37° C. in an atmosphere of 5% de CO2, the cells were washed with PBS and incubated with AEDA doses of between 4.5 and 0.5 mg/ml previously diluted in PBS. […]

[1] = test system: IL-6 secretion in TNFα-stimulated 3T3-L1 adipocytes; experiment: TNFα-stimulated IL-6 secretion in 3T3-L1 adipocytes; format: cell-based, Mouse; details: data not shown
Experimental: Post-differentiation, D6/D7 adipocytes were treated with test material 4 h prior to the addition of TNFα at a final concentration of 10 ng/mL. Following overnight incubation of approximately 18 h, the supernatant media were removed and assayed for IL-6. IL-6 secreted into the medium in response to TNFα stimulation was quantified using the Quantikine® Mouse IL-6 Immunoassay kit Immunoassay kit with no modifications (R&D Systems, Minneapolis, Minn.). Experiments assessing the anti-inflammatory activity of the test samples were repeated a minimum of 2 independent times. For statistical analysis, the effects of test materials IL-6 secretion were normalized, respectively, to the TNFα positive control to generate IL-6 indexes. Differences among the treatments were determined by analysis of variance and student's least significant difference test without correction for multiple comparisons; the nominal 5% probability of a type I error was used. Ninety-five percent CI were computed using the ANOVA error mean square estimate of variance (Excel®, Microsoft, Redmond, Wash.).

Row | Structure (SMILES) | effect on irradiated keratinocytes at higher doses (HaCaT cells) | increase of IL-6 secretion above the TNFα positive control [1]
1 | COc1cc(/C=C/C(=O)O)ccc1O [ferulic acid] | possible photocytotoxic effect | 
2 | C=C[C@@]1(C)CC(=O)[C@]2(O)[C@@]3(C)[C@@H](O)CCC(C)(C)[C@@H]3[C@H](O)[C@H](OC(C)=O)[C@@]2(C)O1 [Forskolin] |  | over 100%
